The values below come from patent US20260176276A1, “COMPOUND FOR REGULATING AND CONTROLLING ACTIVITY OF 15-PGDH AND PREPARATION METHOD THEREFOR” (SCINNOHUB PHARMACEUTICAL CO., LTD, priority 2022, published 2026).

The target of the assay is T1, 15-PGDH (Homo sapiens, UniProt P15428).
T1 construct: purchased Sino Biological Inc. 11205-H08E
T1 sequence (P15428 1-266): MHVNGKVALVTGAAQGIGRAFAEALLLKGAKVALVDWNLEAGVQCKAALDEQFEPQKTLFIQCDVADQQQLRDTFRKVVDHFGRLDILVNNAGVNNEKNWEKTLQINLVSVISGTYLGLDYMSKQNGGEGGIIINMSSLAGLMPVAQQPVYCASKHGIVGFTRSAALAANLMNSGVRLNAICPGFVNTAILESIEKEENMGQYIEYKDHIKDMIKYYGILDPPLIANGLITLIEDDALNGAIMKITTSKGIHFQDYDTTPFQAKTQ
Briefly: Detection of activity of 15-PGDH kinase (enzyme inhibition, fluorescence slope). The conditions noted are these: inhibitory activity against 15-PGDH enzyme; substrates PGF2α and β-NAD; fluorescence Ex/Em=340/450. In kind it is biochemical. On the procedure: [table] • a. A solution of pH 7.5 containing 50 mM Tris-HCl, 0.01% Tween 20 was prepared with ultrapure water as a reaction buffer; • b. A 10 mM mother liquor of the compound to be tested was prepared with DMSO, and then the reaction buffer was used to dilute the mother liquor of the compound to be tested to obtain solution 1 of the compound to be tested at a concentration of 4000 nM, and then the solution 1 of the compound to be tested was serially diluted into solutions 2-10 of the compound to be tested at 9 concentrations with a gradient difference of three-fold. 5 μL of each of solutions 1-10 of the compound to be tested was taken and added into a 384-well plate as test wells; • c. 5 μL of the reaction buffer was added to the 384-well plate as positive control and blank control wells; • d. The reaction buffer was used to prepare a 15-PGDH protein solution at a concentration of 5 ng/μL, 5 μL of the 15-PGDH protein solution was taken and added to the test wells and positive control wells, and 5 μL of the reaction buffer was added to the blank control wells at the same time, then the plate was centrifuged at 2000 rpm for 30 seconds; • e. The reaction buffer was used to prepare 5 mM R-NAD and 2 mM PGF2α, respectively, which were mixed at 1:1 by volume to obtain a substrate mixture, 10 μL of the substrate mixture was taken and added to the test wells, positive control wells and blank control wells to start the reaction; • f. The fluorescence signal value (Ex/Em=340/450) of each well was detected continuously by using a multifunctional microplate reader. • a) Continuous fluorescence signal values were analyzed by using the “kinetic calculations-slope calculation method” in the PHERAstar Data analysis software to obtain the slope of each test well; • b) The inhibition rate % was calculated by using the following formula: [formula] • c) Calculation of IC50 and plotting of inhibition rate-dose curves: IC50 values were calculated by fitting compound concentrations and corresponding inhibition rates with nonlinear regression (dose response-variable slope) via using GraphPad Prism 6.0. The formula is shown below: [formula] wherein X is a log value of a concentration of the compound, and Y is inhibition rate %.
With `CCCC[S+]([O-])c1sc2nc(-c3ccccc3)n3ccnc3c2c1N` (stereo not drawn) [Example 1, 8-(butylsulfinyl)-5-phenylimidazo[1,2-c]thieno[3,2-e]pyrimidin-9-amine], the IC50 (usually the concentration needed to halve the response being measured) fell in the range of 4 to 10 nM.

The molecule `CCCC[S+]([O-])c1sc2nc(-c3ccccc3)n3c(C)nnc3c2c1N` (stereo not drawn) [Example 4, 8-(butylsulfinyl)-3-methyl-5-phenylthieno[3,2-e][1,2,4]triazolo[4,3-c]pyrimidin-9-amine] displayed a half-maximal inhibitory concentration (IC50) of 4 to 10 nM. For `CCCC[S+]([O-])c1sc2nc(-c3ccccc3)n3cc(C)nc3c2c1N` (stereo not drawn) [Example 5], the IC50 was under 1.5 nM. `CCCC[S+]([O-])c1sc2nc(-c3ccccc3)n3cc(C(F)(F)F)nc3c2c1N` (stereo not drawn) [Example 6] came in with an IC50 of 4 to 10 nM. `Nc1c([S+]([O-])C2CCCC2)sc2nc(-c3ccccc3)n3ccnc3c12` (stereo not drawn) [Example 7] displayed a half-inhibitory concentration (IC50) of 4 to 10 nM. For `Nc1c([S+]([O-])C2CCCCC2)sc2nc(-c3ccccc3)n3ccnc3c12` (stereo not drawn) [Example 8], the IC50 was in the range of 4 to 10 nM.

`Nc1c([S+]([O-])C2COC2)sc2nc(-c3ccccc3)n3ccnc3c12` (stereo not drawn) [Example 9] displayed a half-maximal inhibitory concentration (IC50) of 10 to 15 nM. Turning to `CCCC[S+]([O-])c1sc2nc(-c3cnccn3)n3ccnc3c2c1N` (stereo not drawn) [Example 10], the IC50 was in the range of 4 to 10 nM. `CCCC[S+]([O-])c1sc2nc(-c3nccs3)n3ccnc3c2c1N` (stereo not drawn) [Example 11] gave a half-maximal inhibitory concentration (IC50) of 1.5 to 4 nM. The molecule `CCCC[S+]([O-])c1sc2nc(-c3ncccn3)n3ccnc3c2c1N` (stereo not drawn) [Example 12] registered an IC50 of 1.5 to 4 nM. On to `CCCC[S+]([O-])c1sc2nc(-c3cccnc3)n3ccnc3c2c1N` (stereo not drawn) [Example 13], for which the IC50 is under 1.5 nM. Molecule `CCCC[S+]([O-])c1sc2nc(-c3ccsc3)n3ccnc3c2c1N` (stereo not drawn) [Example 14] came in with an IC50 of 1.5 to 4 nM. As to `CCCC[S+]([O-])c1sc2nc(-c3cnn(C)c3)n3ccnc3c2c1N` (stereo not drawn) [Example 15], the 50% inhibitory concentration (IC50) is 1.5 to 4 nM. Then `CCCC[S+]([O-])c1sc2nc(-c3ccncc3)n3ccnc3c2c1N` (stereo not drawn) [Example 16], with 1.5 to 4 nM; and `CCCC[S+]([O-])c1sc2nc(-c3ccc(N4CCOCC4)nc3)n3ccnc3c2c1N` (stereo not drawn) [Example 17], with 4 to 10 nM; and `CCCC[S+]([O-])c1sc2nc(-c3ccccc3)n3cnnc3c2c1N` (stereo not drawn) [Example 18], with 10 to 15 nM. Then `CCCC[S+]([O-])c1sc2nc(-c3ccccc3)n3c(C)cnc3c2c1N` (stereo not drawn) [Example 19], with 1.5 to 4 nM; and `CCCC[S+]([O-])c1sc2nc(-c3ccccc3)n3ccnc3c2c1C` (stereo not drawn) [Example 20], with 15 to 30 nM; and `CCCC[S+]([O-])c1sc2nc(-c3ccc4c(c3)CN(C)C4=O)n3ccnc3c2c1N` (stereo not drawn) [Example 21], with 1.5 to 4 nM. `CCCC[S+]([O-])c1sc2nc(-c3ccc(C(=O)O)cc3)n3ccnc3c2c1N` (stereo not drawn) [Example 22] registered an IC50 of 1.5 to 4 nM. Turning to `Nc1c([S+]([O-])Cc2ccccc2)sc2nc(-c3ccccc3)n3ccnc3c12` (stereo not drawn) [Example 23], the IC50 lay within 10 to 15 nM. In the case of `CCC(C)C[S+]([O-])c1sc2nc(-c3ccccc3)n3ccnc3c2c1N` (stereo not drawn) [Example 24], the IC50 was in the range of 4 to 10 nM. Then `CC(C)C[S+]([O-])c1sc2nc(-c3ccccc3)n3ccnc3c2c1N` (stereo not drawn) [Example 25], with over 30 nM; and `CC(C)(C)[S+]([O-])c1sc2nc(-c3ccccc3)n3ccnc3c2c1N` (stereo not drawn) [Example 26], with 10 to 15 nM.
